Results published in publication PMC10636063, “Progesterone activation of β1-containing BK channels involves two binding sites” (Nature Communications, 2023).
“And” between values parts separate entries of the source, which are not always exact repeats. Equal entries are not always repeated.

How the values were obtained:
[1] = molecular target: T1, β1Y32V,W163I (double mutant) (Rattus norvegicus, UniProt P97678, W163I/Y32V); assay: Thermal unfolding (MST) of β1 double mutant; format: binding
T1 construct: FLAG (DYKDDDDK); made in house; host or cells: CHO cells, transient transfection, anti-flag immunoprecipitation
T1 sequence (P97678 whole entry Y32V/W163I): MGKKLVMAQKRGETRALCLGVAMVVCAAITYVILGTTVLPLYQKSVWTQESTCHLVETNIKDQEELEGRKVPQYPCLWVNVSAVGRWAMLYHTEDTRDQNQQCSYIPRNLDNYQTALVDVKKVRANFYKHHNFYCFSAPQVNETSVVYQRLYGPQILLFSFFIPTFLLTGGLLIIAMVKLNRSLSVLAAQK
Excerpt: (§1) BK channel-forming slo1 cDNA (cbv1 isoform; AY330293) was cloned from rat cerebral artery SM cells, and inserted into pcDNA3.1 vector as described. BK β1 cDNA (KCNMB1 product; NP_011452; FJ154955) were isolated from rat cerebral artery SM cells and cloned as described. β4 cDNA (KCNMB4; NP_055320; AY028605) were generously provided by Dr. Ligia Toro. CHO cells were transiently transfected with cbv1 ± β1-, or β4-carrying pcDNA3.1 using X-tremeGENE HP (Sigma-Aldrich). Mutations to β1/4 cDNAs were conducted by Genscript, with sequences being confirmed to be >99% identical to KCNMB1 product; NP_011452 or β4 KCNMB4; NP_055320; respectively. β1/4 and mutant constructs were flag-tagged (DYKDDDDK-tag) by Genscript services for subsequent immunoprecipitation and use in microscale thermophoresis studies.
(§2) Wt β1, wt β4 and mutant constructs were purified by immunoprecipitation using Dynabeads Protein G Kit (10007D by Invitrogen) and following the manufacturer’s instructions. […] The unfolding profile of a protein is a plot of its fluorescence signal against temperature. […] During the heating process, fluorescence is recorded at 330 and 350 nm. The resulting fluorescence ratio change is then analyzed for onset and inflection points. The temperature of onset and inflection is determined using built-in analysis function in Nanotemper PR.therm-control software. […]

β1Y42V = molecular target: T2, β1Y42V (Rattus norvegicus, UniProt P97678, Y42V); assay: Thermal unfolding (MST) of β1Y42V; format: binding
T2 construct: FLAG (DYKDDDDK); made in house; host or cells: CHO cells, transient transfection, anti-flag immunoprecipitation
T2 sequence (P97678 whole entry Y42V): as the sequence (P97678 whole entry Y32V/W163I) above, with V32Y, Y42V, I163W counted along it
Excerpt: as §1, §2

[2] = molecular target: T3, slo1 (cbv1) homotetramers (Rattus norvegicus, UniProt Q62976); assay: Channel activity (NPo) in POPE/POPS bilayers, cbv1 homomers; format: biochemical
T3 construct: made in house; host or cells: CHO cells, transient transfection; sucrose-gradient membrane preparation
T3 sequence (Q62976 1-1148 isoform Q62976-2): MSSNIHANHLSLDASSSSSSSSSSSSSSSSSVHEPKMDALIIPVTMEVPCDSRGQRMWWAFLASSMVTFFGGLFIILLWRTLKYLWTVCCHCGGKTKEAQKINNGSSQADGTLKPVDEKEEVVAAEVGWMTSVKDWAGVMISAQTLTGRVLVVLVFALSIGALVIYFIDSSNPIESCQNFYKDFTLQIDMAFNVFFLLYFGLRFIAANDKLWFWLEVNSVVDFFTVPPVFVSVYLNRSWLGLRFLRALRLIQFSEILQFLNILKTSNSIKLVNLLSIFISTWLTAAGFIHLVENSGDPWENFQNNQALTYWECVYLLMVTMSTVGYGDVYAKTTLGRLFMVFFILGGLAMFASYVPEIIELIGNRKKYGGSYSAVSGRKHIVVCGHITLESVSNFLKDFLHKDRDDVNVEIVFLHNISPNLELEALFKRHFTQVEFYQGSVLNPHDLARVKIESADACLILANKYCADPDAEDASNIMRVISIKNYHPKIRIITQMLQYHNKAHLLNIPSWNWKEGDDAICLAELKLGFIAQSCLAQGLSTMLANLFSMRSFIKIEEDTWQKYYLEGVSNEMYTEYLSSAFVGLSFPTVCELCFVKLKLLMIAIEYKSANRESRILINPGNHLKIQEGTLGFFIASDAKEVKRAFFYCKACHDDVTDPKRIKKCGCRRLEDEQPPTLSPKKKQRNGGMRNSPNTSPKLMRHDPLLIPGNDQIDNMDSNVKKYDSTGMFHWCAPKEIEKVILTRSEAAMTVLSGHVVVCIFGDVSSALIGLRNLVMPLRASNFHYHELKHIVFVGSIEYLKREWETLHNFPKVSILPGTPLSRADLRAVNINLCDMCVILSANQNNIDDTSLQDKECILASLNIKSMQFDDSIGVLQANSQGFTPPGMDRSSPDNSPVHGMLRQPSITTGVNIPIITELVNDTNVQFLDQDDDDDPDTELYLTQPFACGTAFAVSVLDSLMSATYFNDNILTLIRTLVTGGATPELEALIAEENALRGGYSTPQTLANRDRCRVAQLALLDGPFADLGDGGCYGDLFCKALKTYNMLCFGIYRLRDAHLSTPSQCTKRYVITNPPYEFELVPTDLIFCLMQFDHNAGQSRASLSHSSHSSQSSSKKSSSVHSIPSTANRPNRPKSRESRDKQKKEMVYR
Excerpt: as §1
Proteins for electrophysiological recordings in artificial lipid bilayers remained untagged. Cells were transiently transfected as described above, pelleted and re-suspended on ice in 10 ml of buffer solution of the following composition (mM): 30 KCl, 2 MgCl2, 10 HEPES, 5 EGTA; pH 7.2. A membrane preparation was obtained using a sucrose gradient as described. Aliquots were stored at −80 °C. BK channel-mediated ionic current was recorded in planar lipid bilayers consisting of a POPE:POPS 3:1 (w/w) mixture. Lipid mixtures were dried under N2 and re-suspended in 25 mg/ml of n-decane BK currents following incorporation into horizontal bilayers at 300/30 mM cis/trans gradient as detailed elsewhere. Ion currents were obtained during a 10-min gap-free recording at 0 mV in the presence of 0.01, 10 μM PROG, 10 μM PROG-oxime, or vehicle control (dimethyl sulfoxide; DMSO). Currents were obtained in gap-free mode using a Warner BC-525D amplifier, low pass-filtered at 1 kHz and sampled at 5 kHz with Digidata 1550B/pCLAMP 11 (Molecular Devices). For comparison with previous data from us[16],[17],[45]–[47], studies were conducted at 20–22 °C. PROG stock, oxime stock or vehicle control (DMSO) was added to the bilayer cis chamber to reach final concentrations (0.01–10 µM), with all compounds being dissolved with the same concentration of DMSO (0.1%); n = 5–10 for each group.
Patch-clamp and bilayer data were analyzed using Clampfit 10.7 software (Molecular Devices). NPo was used as an index of channel steady-state activity where N = number of channels in the patch (defined as a maximal number of opening levels at Po≤1) and Po=single channel open probability. Drug-induced NPo changes were determined by comparing baseline NPo (i.e., NPo with the patch/cell perfused with bath solution) to the NPo from the same patch/cell exposed to the agent under study (DMSO/PROG/oxime) dissolved in bath solution. NPo and mean open time values were automatically calculated using Clampfit 10.7, the latter using a 50% threshold detection event.

[3] = molecular target: T4, smooth muscle myocyte BK channels (C57BL/6) (Mus musculus, UniProt Q8CAE3); assay: Inside-out patch-clamp of MCA smooth muscle myocytes, wt mice; format: cell-based
T4 construct: endogenous in cells; host or cells: freshly isolated mouse middle cerebral artery smooth muscle cells, inside-out patches
T4 sequence (Q8CAE3 whole entry): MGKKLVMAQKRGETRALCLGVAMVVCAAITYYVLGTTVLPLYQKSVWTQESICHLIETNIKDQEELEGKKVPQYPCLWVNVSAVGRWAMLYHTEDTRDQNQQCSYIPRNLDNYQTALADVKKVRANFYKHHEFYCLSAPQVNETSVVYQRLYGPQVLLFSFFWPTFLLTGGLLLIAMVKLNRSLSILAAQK
T4 sequence (Q08460 whole entry partner): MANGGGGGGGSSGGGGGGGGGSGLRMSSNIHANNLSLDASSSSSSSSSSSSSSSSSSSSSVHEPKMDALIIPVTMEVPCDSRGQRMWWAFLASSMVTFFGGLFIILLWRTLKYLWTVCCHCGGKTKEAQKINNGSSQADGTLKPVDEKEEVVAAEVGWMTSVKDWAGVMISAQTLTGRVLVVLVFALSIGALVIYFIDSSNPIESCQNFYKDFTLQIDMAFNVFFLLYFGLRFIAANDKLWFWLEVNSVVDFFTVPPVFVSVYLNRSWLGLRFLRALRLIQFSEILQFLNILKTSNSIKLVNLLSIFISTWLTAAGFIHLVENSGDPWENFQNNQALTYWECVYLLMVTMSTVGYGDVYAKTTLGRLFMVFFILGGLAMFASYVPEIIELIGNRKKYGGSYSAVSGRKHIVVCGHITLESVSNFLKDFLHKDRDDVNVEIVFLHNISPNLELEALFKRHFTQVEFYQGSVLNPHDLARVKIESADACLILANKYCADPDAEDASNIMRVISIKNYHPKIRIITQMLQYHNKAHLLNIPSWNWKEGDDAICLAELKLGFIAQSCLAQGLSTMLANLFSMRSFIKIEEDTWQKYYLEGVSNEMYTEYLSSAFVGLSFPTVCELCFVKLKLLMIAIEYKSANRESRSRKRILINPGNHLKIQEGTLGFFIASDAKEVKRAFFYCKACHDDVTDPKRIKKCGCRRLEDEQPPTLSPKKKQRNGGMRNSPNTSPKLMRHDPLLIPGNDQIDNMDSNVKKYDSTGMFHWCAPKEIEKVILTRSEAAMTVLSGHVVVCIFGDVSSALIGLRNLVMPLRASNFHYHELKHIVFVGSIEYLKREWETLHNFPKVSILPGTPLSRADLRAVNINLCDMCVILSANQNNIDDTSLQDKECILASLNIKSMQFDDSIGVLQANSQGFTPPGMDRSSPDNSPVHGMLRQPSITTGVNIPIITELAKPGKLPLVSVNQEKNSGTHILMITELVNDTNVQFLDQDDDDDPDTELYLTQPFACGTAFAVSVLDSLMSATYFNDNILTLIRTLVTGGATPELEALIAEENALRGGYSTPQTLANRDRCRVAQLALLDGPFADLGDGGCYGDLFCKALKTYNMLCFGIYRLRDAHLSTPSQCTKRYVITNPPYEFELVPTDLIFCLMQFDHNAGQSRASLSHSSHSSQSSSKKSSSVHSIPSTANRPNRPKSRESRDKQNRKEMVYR
Procedure: Ionic currents were recorded from excised, inside-out (I/O) patches. […] In all experiments, free [Ca^2+] in solution was adjusted to the desired value by adding the appropriate amount of Ca^2+ from a 1 mM CaCl2 stock. An agar bridge with Cl^- as main anion was used as ground electrode. Solutions were applied onto the cytosolic side of I/O patches using an automated, pressurized system (Octaflow; […] Ionic currents at single channel resolution were recorded using an EPC8 amplifier (HEKA) at 1 kHz. Data were digitized at 5 kHz using a Digidata […] A/D converter and pCLAMP 8.0 (Molecular Devices); n = 5/group. […] Drug-induced NPo changes were determined by comparing baseline NPo (i.e., NPo with the patch/cell perfused with bath solution) to the NPo from the same patch/cell exposed to the agent under study (DMSO/PROG/oxime) dissolved in bath solution.

## CC(=O)[C@H]1CC[C@H]2[C@@H]3CCC4=CC(=O)CC[C@]4(C)[C@H]3CC[C@]12C [PROG, Progesterone]
[1]; 4.1 μM
  effect on thermal unfolding / binding: not destabilized
[1]; low concentrations (subμM)
  effect on thermal unfolding / binding: still destabilized
β1Y42V
  binding: still bind PROG
[2]; 10 µM PROG, min 2, single records
  NPo/NPobasal: 1.014 and 0.7178 and 0.9853 and 1 and 0.9322
[2]; 10 µM PROG, min 4, single records
  NPo/NPobasal: 1.047 and 1.067 and 1.015 and 1.069 and 1.029
[2]; 10 µM PROG, min 5, single records
  NPo/NPobasal: 1.023 and 1.182 and 1.11 and 1.053 and 1.066
[2]; 10 µM PROG, min 6, single records
  NPo/NPobasal: 1.028 and 1.207 and 1.088 and 1.041 and 1.129
[2]; 10 µM PROG, min 7, single records
  NPo/NPobasal: 0.8935 and 1.1318 and 1.162 and 1.118 and 1.064
[2]; 10 µM PROG, min 8, single records
  NPo/NPobasal: 1.148 and 1.63 and 1.096 and 1.061 and 1.045
[2]; 10 µM PROG, min 10, single records
  NPo/NPobasal: 1.394 and 1.416 and 1.11 and 0.7114 and 1.049
[2]; 10 µM PROG, single records (Fig 1I)
  maximal activity (NPo/NPobasal): 1.053 and 1.066 and 1.023 and 1.182 and 1.11
[2]; 10 μM, up to 10 min
  action on channel activity (NPo): consistently failed to activate the homomeric channels
[3]; 10 µM, I/O patches, 30 μM free Ca2+
  increase of BK channel activity: ~ 3 fold
[3]; wt mouse, PROG, time 1 (normalisation reference), columns = cell number
  normalized NPo, time course Fig 5C: 1
